Experimental data taken from PMC3660081 (Annals of Oncology, 2013).
Entries after “also recorded” stand apart in the source; their conditions may differ.

Key:
[1] = Drug-related treatment-emergent adverse events; assay type: in vivo, human; details: for Administration interrupted (omitted) / Dose reduction due to adverse events: % of administered cycles
[2] = Pharmacokinetics of chemotherapy components before; details: for Effect of regorafenib on pharmacokinetics/exposure, in words: cycle 2 versus cycle 1; for Cmax in cycle 2 versus cycle 1, in words: following regorafenib dosing
[3] = cited from earlier work
UGT1A1 = details: cited from earlier work
[4] = tested on: heavily pretreated colorectal cancer; details: single-agent regorafenib; cited from earlier work
UGT1A9 = details: cited from earlier work
[5] = tested on: colorectal cancer after progression on standard therapy; details: versus best supportive care 5.0 months; cited from earlier work
[6] = after versus before regorafenib dosing
[7] = Cycle 1 day 1, before regorafenib dosing
[8] = Cycle 2 day 1, after regorafenib dosing

For `CCc1c2c(nc3ccc(OC(=O)N4CCC(N5CCCCC5)CC4)cc13)-c1cc3c(c(=O)n1C2)COC(=O)[C@]3(O)CC` [Irinotecan, irinotecan], the “Administration interrupted (omitted)” value [1] was 5%, the “Dose reduction due to adverse events” value [1] was 12% and the “AUC ratio (90% CI) Cycle 2/Cycle 1” value [2, 6] was 1.28. For the same compound, the “Cmax ratio (90% CI) Cycle 2/Cycle 1” value [2, 6] was 1.22 (0.80–1.85), the “Effect of regorafenib on pharmacokinetics/exposure, in words” value [2] was “increased exposure; also recorded: increased significantly” and the “Cmax in cycle 2 versus cycle 1, in words” value [2] was “only slightly increased”. It also gave an AUC ([2]; human, in vivo, geometric mean, Cycle 1 day 1, before regorafenib dosing) of 10700 ng·h/mL, an AUC ([2]; human, in vivo, geometric mean, Cycle 2 day 1, after regorafenib dosing) of 13800 ng·h/mL and a Cmax ([2]; human, in vivo, Cmax, geometric mean, Cycle 1 day 1, before regorafenib dosing) of 1900 ng/mL.

For `CNC(=O)c1cc(Oc2ccc(NC(=O)Nc3ccc(Cl)c(C(F)(F)F)c3)c(F)c2)cc[n+]1[O-]` [M2], the Half-life [3] is listed as 26 to 28 h.

In the case of `O=c1[nH]cc(F)c(=O)[nH]1` [5-fluorouracil], the “Administration interrupted (omitted)” value [1] is reported as 8%, the “Dose reduction due to adverse events” value [1] is reported as 18% and the “Cmax ratio (90% CI) Cycle 2/Cycle 1” value ([2]; FOLFIRI regimen) is reported as 0.92 (0.06–13.9). The “t½, geometric mean” value ([2]; FOLFIRI regimen, Cycle 1, before regorafenib dosing) was 0.2 H, the “AUC ratio (90% CI) Cycle 2/Cycle 1” value ([2]; FOLFOX regimen) was 1.06 (0.69–1.64) and the “Cmax ratio (90% CI) Cycle 2/Cycle 1” value ([2]; FOLFOX regimen) was 0.89 (0.50–1.61). For the same compound, the “t½, geometric mean” value ([2]; FOLFOX regimen, Cycle 1, before regorafenib dosing) was 0.4 H, the “t½, geometric mean” value ([2]; FOLFOX regimen, Cycle 2, after regorafenib dosing) was 2.4 H and the “Effect of regorafenib on pharmacokinetics/exposure, in words” value [2] was “no significant effect”.

For `NC(=O)c1cc(Oc2ccc(NC(=O)Nc3ccc(Cl)c(C(F)(F)F)c3)c(F)c2)cc[n+]1[O-]` [M5], the Half-life [3] is given as 51 to 64 h.

In the case of `CCc1c2c(nc3ccc(O)cc13)-c1cc3c(c(=O)n1C2)COC(=O)[C@]3(O)CC` [SN-38], the “AUC, geometric mean” value [2, 7] is reported as 400 ng·h/mL, the “t½, geometric mean” value [2, 7] is reported as 16.8 h and the “AUC, geometric mean” value [2, 8] is reported as 500 ng·h/mL. For the same compound, the “t½, geometric mean” value [2, 8] was 19.3 h, the “AUC ratio (90% CI) Cycle 2/Cycle 1” value [2, 6] was 1.44 and the “Cmax ratio (90% CI) Cycle 2/Cycle 1” value [2, 6] was 0.91 (0.55–1.50). For the same compound, the “Effect of regorafenib on pharmacokinetics/exposure, in words” value [2] was “increased exposure; also recorded: increased significantly” and the “Cmax in cycle 2 versus cycle 1, in words” value [2] was “unchanged”.

For `CNC(=O)c1cc(Oc2ccc(NC(=O)Nc3ccc(Cl)c(C(F)(F)F)c3)c(F)c2)ccn1` [Regorafenib], the “Inhibition of UGT1A1, in words” value (UGT1A1) is given as “strong inhibitor”, the “Tolerability in combination with chemotherapy (FOLFOX or FOLFIRI), in words” value ([1]; regorafenib 160 mg once daily days 4–10 and 18–24) is given as “acceptable tolerability” and the Stable disease [4] is given as 19 of 27. The “Inhibition of UGT1A9, in words” value (UGT1A9) was “strong inhibitor”, the “Overall survival (OS)” value [5] was 6.4 months and the Half-life [3] was 25 h.

With `O=C1[O][Pt]2([NH][C@@H]3CCCC[C@H]3[NH]2)[O]C1=O` [Oxaliplatin, oxaliplatin] the “Administration interrupted (omitted)” value [1] was 11%, the “Dose reduction due to adverse events” value [1] was 11% and the “Effect of regorafenib on pharmacokinetics/exposure, in words” value [2] was “no significant effect”.
